# Experimental data taken from publication PMC3610419, “A Randomized, Double-Blind Placebo Controlled Trial of Balapiravir, a Polymerase Inhibitor, in Adult Dengue Patients” (The Journal of Infectious Diseases, 2012).
# Marks after values point to notes of the source that are not given here.
# Legend:
# HCV = conditions: cited from earlier work
# [1] = Safety and tolerability, adverse events in adult dengue patients; conditions: for safety and tolerability: 1500 mg or 3000 mg orally twice daily for 5 days, adult dengue patients
# Description: Randomization to treatment group was by computer-generated randomization sequencing in blocks of 2. Balapiravir was formulated in a 500-mg film-coated tablet. The placebo consisted of an identical looking tablet containing excipient only. All balapiravir and placebo tablets were provided by F. Hoffmann-La Roche. Patients in cohort 1 (n = 20) received 1500 mg of balapiravir or an identical placebo orally every 12 hours for 5 days (10 doses). The decision to dose escalate (to 3000 mg) was made after review of the partially unblinded group mean clinical and laboratory data acquired from patients in cohort 1. Patients in cohort 2 (n = 44) received 3000 mg of balapiravir or placebo orally twice a day for 5 days (10 doses).
# Eligible patients remained in clinic during a 7-day in-patient period then returned for follow-up visits on study days 14, 28, and 84. During the inpatient period, patient vital signs were assessed every 6 hours and routine laboratory investigations were performed daily or as clinically indicated. Safety and tolerability were monitored at regular intervals and included physical examinations, vital signs, electrocardiograms, clinical laboratory assessments, incidence of clinical adverse events, and concomitant medications. Any clinically significant abnormal laboratory test results were followed up until resolved or stabilized. A quality of life assessment, using a questionnaire and a visual analog scale, was implemented on study days 1, 3, 5, 7, 14, 28, and 84.
# [2] = High dose (3000 mg twice a day, 5 days), n=22
# [3] = Low dose (1500 mg twice a day, 5 days), n=10
structure (smiles),measurement,setting,value
CC(C)C(=O)OC[C@@]1(N=[N+]=[N-])O[C@@H](n2ccc(N)nc2=O)[C@H](OC(=O)C(C)C)[C@@H]1OC(=O)C(C)C [Balapiravir],antiviral effect (reduction in plasma HCV RNA level),HCV; 500 mg twice daily,no significant antiviral effect
same,clinical safety in extended courses,"HCV; extended courses (2–3 months) in conjunction with pegylated interferon and ribavirin, HCV infection",clinical safety signals were detected
same,effect on plasma HCV levels,"HCV; monotherapy twice per day for 14 days, chronic HCV",reduced plasma HCV levels in a dose- and time-dependent manner
same,tolerability,"HCV; monotherapy twice per day for 14 days, doses up to 3000 mg, adult male patients",well-tolerated
same,reported serious adverse events (SAEs),[1]; 1500 mg balapiravir arm,1
same,safety and tolerability,[1],safe and well-tolerated
same,safety and tolerability,[1]; listed as balapiravir,well tolerated
same,reported serious adverse events (SAEs),[1]; 3000 mg balapiravir arm,1
same,ABDOMINAL PAIN,[1]; [2],3 (13.64%) no.pt. (%)
same,ABNORMAL INR,[1]; [2],1 (4.55%) no.pt. (%)
same,ALTERATION OF TASTE,[1]; [2],0 (0%) no.pt. (%)
same,ANOREXIA,[1]; [2],1 (4.55%) no.pt. (%)
same,ANY EVENT - no (%) patients with at least one event,[1]; [2],19 (86.36%) no.pt. (%)
same,ANY EVENT - no of events,[1]; [2],65
same,BRUISING,[1]; [2],2 (9.09%) no.pt. (%)
same,COUGH,[1]; [2],4 (18.18%) no.pt. (%)
same,DECREASE OF FIBRINOGEN,[1]; [2],4 (18.18%) no.pt. (%)
same,DIARRHOEA,[1]; [2],8 (36.36%) no.pt. (%)
same,DYSPEPSIA,[1]; [2],1 (4.55%) no.pt. (%)
same,ELEVATED ALT,[1]; [2],0 (0%) no.pt. (%)
same,ELEVATED AST,[1]; [2],0 (0%) no.pt. (%)
same,EPISTAXIS,[1]; [2],0 (0%) no.pt. (%)
same,FLATULENCE,[1]; [2],0 (0%) no.pt. (%)
same,GUM BLEEDING,[1]; [2],6 (27.27%) no.pt. (%)
same,HEADACHE,[1]; [2],5 (22.73%) no.pt. (%)
same,HEMATEMESIS,[1]; [2],0 (0%) no.pt. (%)
same,HEMATURIA,[1]; [2],1 (4.55%) no.pt. (%)
same,HEMOPTYSIS,[1]; [2],0 (0%) no.pt. (%)
same,HYPOALBUMINEMIA,[1]; [2],1 (4.55%) no.pt. (%)
same,"ITCHY RASH ON CHEEK, AND FOREHEAD",[1]; [2],0 (0%) no.pt. (%)
same,NARROW PULSE PRESSURE,[1]; [2],0 (0%) no.pt. (%)
same,NAUSEA,[1]; [2],2 (9.09%) no.pt. (%)
same,PETECHIAE,[1]; [2],6 (27.27%) no.pt. (%)
same,PROLONGED APTT,[1]; [2],7 (31.82%) no.pt. (%)
same,PROTEINURIA,[1]; [2],0 (0%) no.pt. (%)
same,PRURITIS,[1]; [2],0 (0%) no.pt. (%)
same,RETINAL INJURY,[1]; [2],0 (0%) no.pt. (%)
same,SORE THROAT,[1]; [2],0 (0%) no.pt. (%)
same,VERTIGO,[1]; [2],0 (0%) no.pt. (%)
same,VOMIT,[1]; [2],2 (9.09%) no.pt. (%)
same,THROMBOCYTOPENIA,"[1]; High dose (3000 mg twice a day, 5 days), n=22, one patient in this group had a SAE",11 (50%) ^a no.pt. (%)
same,ABDOMINAL PAIN,[1]; [3],0 (0%) no.pt. (%)
same,ABNORMAL INR,[1]; [3],0 (0%) no.pt. (%)
same,ALTERATION OF TASTE,[1]; [3],0 (0%) no.pt. (%)
same,ANOREXIA,[1]; [3],2 (20%) no.pt. (%)
same,ANY EVENT - no (%) patients with at least one event,[1]; [3],8 (80%) no.pt. (%)
same,ANY EVENT - no of events,[1]; [3],30
same,BRUISING,[1]; [3],0 (0%) no.pt. (%)
same,COUGH,[1]; [3],0 (0%) no.pt. (%)
same,DECREASE OF FIBRINOGEN,[1]; [3],1 (10%) no.pt. (%)
same,DIARRHOEA,[1]; [3],4 (40%) no.pt. (%)
same,DYSPEPSIA,[1]; [3],1 (10%) no.pt. (%)
same,ELEVATED ALT,[1]; [3],0 (0%) no.pt. (%)
same,ELEVATED AST,[1]; [3],0 (0%) no.pt. (%)
same,EPISTAXIS,[1]; [3],0 (0%) no.pt. (%)
same,FLATULENCE,[1]; [3],0 (0%) no.pt. (%)
same,GUM BLEEDING,[1]; [3],0 (0%) no.pt. (%)
same,HEADACHE,[1]; [3],2 (20%) no.pt. (%)
same,HEMATEMESIS,[1]; [3],0 (0%) no.pt. (%)
same,HEMATURIA,[1]; [3],0 (0%) no.pt. (%)
same,HEMOPTYSIS,[1]; [3],0 (0%) no.pt. (%)
same,HYPOALBUMINEMIA,[1]; [3],1 (10%) no.pt. (%)
same,"ITCHY RASH ON CHEEK, AND FOREHEAD",[1]; [3],1 (10%) no.pt. (%)
same,NAUSEA,[1]; [3],0 (0%) no.pt. (%)
same,PETECHIAE,[1]; [3],4 (40%) no.pt. (%)
same,PROLONGED APTT,[1]; [3],2 (20%) no.pt. (%)
same,PROTEINURIA,[1]; [3],1 (10%) no.pt. (%)
same,PRURITIS,[1]; [3],1 (10%) no.pt. (%)
same,RETINAL INJURY,[1]; [3],0 (0%) no.pt. (%)
same,SORE THROAT,[1]; [3],0 (0%) no.pt. (%)
same,THROMBOCYTOPENIA,[1]; [3],4 (40%) no.pt. (%)
same,VERTIGO,[1]; [3],1 (10%) no.pt. (%)
same,VOMIT,[1]; [3],4 (40%) no.pt. (%)
same,NARROW PULSE PRESSURE,"[1]; Low dose (1500 mg twice a day, 5 days), n=10, one patient in this group had a SAE",1 (10%) ^a no.pt. (%)
